For test [1], the target named is T1, recombinant BACE1 (rBACE1) (Homo sapiens, UniProt P56817).
T1 construct: purchased R&D Systems 931-AS
The experiment in a line: BACE1 activity with recombinant BACE1 in the presence of LA or c9,t11-CLA. It counts as biochemical. As to conditions: 100 μM; for BACE1 activity compared to just a solvent DMSO: rBACE1, 37° C. 15 min, then substrate 1 h. Here is the method: Whether or not c9,t11-CLA directly acted on BACE1 and changed its activity was checked by measuring the BACE1 activity in the presence or absence of LA or c9,t11-CLA while recombinant BACE1 (rBACE1, catalog number 931-AS; R&D Systems, Minneapolis, Minn., USA) was used (FIG. 6). First, 100 μM LA or c9,t11-CLA, which had been dissolved in DMSO, was added to rBACE1, and the mixture was incubated at 37° C. for 15 min. Next, a chromogenic substrate was added and incubated at 37° C. for 1 h. Then, the BACE1 activity was measured.

Test [2] has as its system neurons from APP-KI mouse. The experiment in a line: Human Aβ42 secreted by APP-KI mouse neurons. It counts as cell-based. As to conditions: LA-treated versus c9,t11-CLA-treated nerves, p<0.05, not shown. The source says: The amount of Aβ42 generated from endogenous amyloid-β (Aβ) precursor protein APP is usually very small. Thus, it is difficult to accurately quantify Aβ42 secreted from wild-type mouse neurons. Then, the mouse Aβ sequence was changed to a human form (in FIG. 3(B), the mouse and human amino acid sequences). After that, neurons from a knock-in mouse, into which a familial Alzheimer's disease mutation that increases the level of Aβ42 produced was introduced, (Apptm3.1Tcs/Apptm3.1Tcs) (hereinafter, the same as a mouse called APP-KI mouse described in Non-Patent Literature 6: Saito et al. [2014] Nature Neuroscience 17, 661-663) were cultured in a manner similar to the above. Finally, human Aβ42 secreted while the same experiments as in FIG. 3(A) were repeated was quantified (Non-Patent Literature 7: Kimura, Hata, Suzuki [2016] J. Biol. Chem. 291, 24041-24053).

In the next test the test system is neurons. Conditions: Non-Patent Literature 1; cited from earlier work.
A further test concerns wild-type mouse neurons. The experiment in a line: Aβ40 secreted into culture medium by wild-type mouse neurons (sandwich ELISA). Conditions: 10 uM, 24 h; compared with LA-added neurons (LA set to 1.0). It counts as cell-based. Here is the method:
Neurons in the cerebral cortex and hippocampus were isolated from the fetal brain of wild-type mouse (C57BL6/J) and were cultured in Neurobasal Medium containing 2% B-27 Supplement (Invitrogen), 4 mM Glutamax I, and 5% heat-inactivated horse serum (the other detailed conditions were substantially the same as in the protocol disclosed in Non-Patent Literature 4: Chiba et al., [2014] Mol. Biol. Cell 25, 3569-3580).
Primary culture nerves (5×10^3 cells), which had been cultured by the above procedure for 9 to 12 days (DIV9-12), were cultured for 24 h in each of a culture medium containing 10 uM linoleic acid (LA “L1376”, Sigma-Aldrich, Inc.) or a culture medium containing 10 uM c9,t11-CLA (purity: 98%, ABCAM, Inc.) (the experiment was triplicate: n=3 to 6). Next, for each of a sample using LA or a sample using c9,t11-CLA, mouse amyloid β-protein 40 (Aβ40) secreted into the culture medium was quantified by sandwich ELISA (sELISA). […]
The complex was then reacted with an IgG Fab′ fragment of HRP (Horseradish peroxidase)-labeled mouse/rat Aβ(1-16) sequence-specific (rabbit) antibody (IBL, Inc.: Immuno-Biological Laboratories Co, Ltd.). After that, TMB (3,3′,5,5′-tetramethyl benzidine) was used as a chromogenic substrate for quantification. […] In FIG. 3(A), while the level of Aβ40 secreted when LA was added was set to 1.0, the level of Aβ40 secreted when c9,t11-CLA was added was quantified.
(In general: An ELISA detects its analyte on a solid surface through an enzyme-linked reagent.)

The test system of a further test is wild-type neurons. The experiment in a line: Western blot of APP, BACE1 and PS1 NTF levels in wild-type neurons. It counts as cell-based, mouse. As to conditions: c9,t11-CLA versus LA. Here is the method: Western blot was used to analyze the level of APP (Aβ precursor, which is a substrate for BACE1), BACE1, PS1 NTF (a catalytic unit of γ-Secretase, which is an enzyme for cleaving CTFβ, an APP C-terminal fragment containing an Aβ sequence cleaved by BACE1, to generate Aβ), and a membrane protein Flotillin (control protein) in the LA-added or c9,t11-CLA-added wild-type neurons. The whole cells were lysed in RIPA buffer (components: 50 mM Tris-HCl [pH 8.0], 150 mM NaCl, 0.5% SDS, 0.5% sodium deoxycholate, and 1% Nonidet P-40). The extracted proteins (15 μg protein) were subjected to electrophoresis using SDS-polyacrylamide gel. Then, Western blot with each antibody was used to analyze APP (with the same as an antibody G369, described in Non-Patent Literature 8: Oishi et al. [1997] Mol. Med. 3, 111-123), BACE1 (with an antibody D10E5; Cell Signaling Technology, Inc.), PS1 NTF (with the same as an antibody Ab14, described in Non-Patent Literature 9: Thinakaran et al. [1996] Neuron, 17, 181-190), and Flotillin-1 (with an antibody 610821, BD Bioscience, Inc.). The protein reacted with each antibody was detected using a Clarity Western ECL substrate (Cat *170-5061; Bio-Rad) and quantified with LAS-4000 (Fujifilm).
(In general: In western blotting, separated proteins are transferred to a membrane and probed.)

For a further test, the system named is neural stem cells. Conditions: Non-Patent Literature 3; cited from earlier work.
The test system of a further test is BACE1. The experiment in a line: BACE1 activity of wild-type mouse neurons (β-Secretase Activity Assay Kit). It is filed as cell-based. Conditions: 10 uM, 24 h, compared with LA-added neurons. Here is the method:
The BACE1 activity of the above wild-type mouse neurons used in the experiments shown in FIG. 3 was measured using a β-Secretase (BACE1) Activity Assay Kit (“ab65357”, Abcam, Inc.) in accordance with the instructions.

The subject of a further test is AD model mice. As to the kind of experiment: AD model mice with oral intake of c9,t11-CLA: brain staining (IL-10, phosphorylated tau, astrocytes, microglia). It is filed as in vivo, mouse.
The mark [3] stands for this setting: hippocampus, oral intake versus no intake.

Data on three compounds can be found in patent publication US20220096415A1, “Composition for Improving Cognitive Function” (Demencare Laboratory Inc., priority 2018, published 2022).

T1 sequence (P56817 46-457 limits assumed): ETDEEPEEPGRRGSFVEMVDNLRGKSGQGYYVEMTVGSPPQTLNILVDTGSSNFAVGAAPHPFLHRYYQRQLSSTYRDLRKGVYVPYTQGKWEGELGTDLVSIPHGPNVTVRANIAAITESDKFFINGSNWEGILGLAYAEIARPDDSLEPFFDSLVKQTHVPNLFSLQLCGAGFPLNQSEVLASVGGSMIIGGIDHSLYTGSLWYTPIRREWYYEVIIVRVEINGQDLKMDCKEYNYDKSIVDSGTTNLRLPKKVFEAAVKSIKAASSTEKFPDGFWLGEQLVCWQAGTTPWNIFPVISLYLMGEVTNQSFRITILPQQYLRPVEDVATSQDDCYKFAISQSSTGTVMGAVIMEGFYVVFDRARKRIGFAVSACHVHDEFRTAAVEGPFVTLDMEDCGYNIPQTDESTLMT

As to `CCCCC/C=C\C/C=C\CCCCCCCC(=O)O` [LA, linoleic acid, reference compound], the “BACE1 activity compared to just a solvent DMSO” value in test [1] is listed as “increase in the activity”. The “level of human Aβ42 secreted” value in test [2] was “significantly lower”.
As for `CCCCCC/C=C/C=C\CCCCCCCC(=O)O` [c9,t11-CLA, c9,t11-conjugated linoleic acid], the “prevention of glutamic acid-induced hyper-excited state and cell death of neurons (neuroprotective effect)” value in the test with neurons is recorded as “can exert the effects”. Further, the “level of Aβ produced/secreted (mouse Aβ40)” value in the test with wild-type mouse neurons is recorded as “significantly lower”. In the test on wild-type neurons, the “level of APP” value is on record as “no observed significant difference”, the “level of BACE1” value is listed as “no observed significant difference” and the “level of PS1 NTF” value is reported as “no observed significant difference”. The “effect on growth of neural stem cells” value in the test with neural stem cells is “promoting growth of neural stem cells”. For the same compound, in test [1] (rBACE1), the “difference in BACE1 activity between LA and c9,t11-CLA” value is recorded as “no observed significant difference”. Moreover, in test [1], the “BACE1 activity compared to just a solvent DMSO” value is given as “increase in the activity”. The “BACE1 activity of neurons” value in the test on BACE1 was “significantly lower”. In the test on AD model mice (cortex, CLA intake group), the “Microglia (Iba1 staining)” value is “significant increase”. In addition, in the test on AD model mice (hippocampus, CLA intake group), the “Microglia (Iba1 staining)” value is given as “significant increase” and the “number of IL-10-expressing cells” value is “significantly increased”. Moreover, in the test on AD model mice (setting [3]), the Astrocyte staining result is recorded as “tended to decrease” and the “Phosphorylated tau protein staining” value is “tended to decrease”.
As to `CCCCC/C=C\C=C\CCCCCCCCC(=O)O` [t10,c12-CLA, t10,c12-conjugated linoleic acid, reference compound], in the test on neurons, the “prevention of glutamic acid-induced hyper-excited state and cell death of neurons (neuroprotective effect)” value was “fails to exert such effects”. In the test on neural stem cells, the “effect on growth of neural stem cells” value is on record as “inhibition of growth of neural stem cells”.
